Data published in patent US5409817A, “Use of trans-sialidase and sialyltransferase for synthesis of sialylα2→3βgalactosides” (priority 1993, dated 1995).
Read-outs that look alike come from different tables or passages of the source.

Assays:
[1] = biological target: T1, α-(2,3)Sialyltransferase EC 2.4.99.6 (Rattus norvegicus, UniProt Q02734); conditions: acceptor for EC 2.4.99.6, cited from earlier work
T1 sequence (Q02734 1-374): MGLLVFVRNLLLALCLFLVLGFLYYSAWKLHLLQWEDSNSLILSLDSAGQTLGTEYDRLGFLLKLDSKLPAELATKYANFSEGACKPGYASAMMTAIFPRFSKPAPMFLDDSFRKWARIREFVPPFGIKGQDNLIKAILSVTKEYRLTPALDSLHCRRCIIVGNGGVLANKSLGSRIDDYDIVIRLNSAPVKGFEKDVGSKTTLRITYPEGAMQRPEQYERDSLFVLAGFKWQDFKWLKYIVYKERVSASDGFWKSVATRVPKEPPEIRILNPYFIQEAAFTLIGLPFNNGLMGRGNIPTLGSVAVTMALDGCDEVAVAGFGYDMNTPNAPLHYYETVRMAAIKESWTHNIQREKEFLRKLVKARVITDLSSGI

[2] = biological target: T2, α-(2,3)Sialyltransferase EC 2.4.99.4 (Sus scrofa, UniProt Q02745); conditions: acceptor for EC 2.4.99.4, cited from earlier work
T2 sequence (Q02745 1-343): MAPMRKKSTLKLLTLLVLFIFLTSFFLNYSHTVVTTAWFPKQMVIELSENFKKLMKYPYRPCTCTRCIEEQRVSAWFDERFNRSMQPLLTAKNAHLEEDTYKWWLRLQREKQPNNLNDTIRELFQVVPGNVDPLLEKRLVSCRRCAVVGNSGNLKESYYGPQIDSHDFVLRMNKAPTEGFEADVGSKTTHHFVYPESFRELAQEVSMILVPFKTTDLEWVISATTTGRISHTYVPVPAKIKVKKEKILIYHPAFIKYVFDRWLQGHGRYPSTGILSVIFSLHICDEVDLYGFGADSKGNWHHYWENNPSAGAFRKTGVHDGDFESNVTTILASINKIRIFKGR

T. crusi trans-sialidase = T. crusi trans-sialidase (Trypanosoma cruzi, UniProt P23253); experiment: Suitability as acceptor for the trans-sialidase; type: biochemical
Sequence of T. crusi trans-sialidase (P23253 whole entry): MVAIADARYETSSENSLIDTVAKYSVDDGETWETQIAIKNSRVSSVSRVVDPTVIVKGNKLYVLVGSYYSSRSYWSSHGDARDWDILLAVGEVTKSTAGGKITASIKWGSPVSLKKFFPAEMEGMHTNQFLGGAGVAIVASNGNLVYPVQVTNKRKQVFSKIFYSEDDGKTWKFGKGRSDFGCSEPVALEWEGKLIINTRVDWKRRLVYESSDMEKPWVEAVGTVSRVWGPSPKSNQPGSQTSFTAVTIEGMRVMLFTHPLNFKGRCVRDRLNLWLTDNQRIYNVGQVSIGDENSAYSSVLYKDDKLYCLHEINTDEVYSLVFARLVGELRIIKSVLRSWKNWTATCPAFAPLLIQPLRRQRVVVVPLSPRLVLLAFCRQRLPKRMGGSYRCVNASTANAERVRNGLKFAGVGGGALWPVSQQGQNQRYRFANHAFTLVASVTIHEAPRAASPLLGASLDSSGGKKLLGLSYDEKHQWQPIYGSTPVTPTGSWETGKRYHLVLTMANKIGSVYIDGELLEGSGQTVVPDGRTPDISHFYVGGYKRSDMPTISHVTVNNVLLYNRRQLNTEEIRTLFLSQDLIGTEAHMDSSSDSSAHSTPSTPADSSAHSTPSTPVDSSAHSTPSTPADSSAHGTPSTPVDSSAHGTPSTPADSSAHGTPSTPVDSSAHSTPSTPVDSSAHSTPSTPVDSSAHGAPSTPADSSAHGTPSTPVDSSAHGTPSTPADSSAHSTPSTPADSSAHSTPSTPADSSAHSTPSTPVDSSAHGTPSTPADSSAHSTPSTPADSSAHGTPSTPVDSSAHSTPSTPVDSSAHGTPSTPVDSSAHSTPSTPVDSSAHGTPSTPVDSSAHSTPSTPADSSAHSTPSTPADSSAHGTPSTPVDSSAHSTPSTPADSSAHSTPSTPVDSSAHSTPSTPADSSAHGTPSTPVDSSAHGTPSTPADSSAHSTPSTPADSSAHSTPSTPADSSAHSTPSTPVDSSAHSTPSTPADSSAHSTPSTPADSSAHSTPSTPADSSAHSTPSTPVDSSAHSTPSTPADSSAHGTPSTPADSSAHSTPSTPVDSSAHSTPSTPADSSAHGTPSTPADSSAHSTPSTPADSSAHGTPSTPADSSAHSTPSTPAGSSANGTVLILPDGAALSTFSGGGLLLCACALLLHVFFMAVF
Source text: The third principal enzyme used here is the trans-sialidase of Trypanosoma crusi (T. crusi) whose isolation and reactivity was reported in Vendekerckhove et al., Glycobiology, 6:541 (1992). This enzyme is often referred to as the trans-sialidase, and has a broad specificity for transferring sialic acid from a wide variety of NeuAcα2→3βGal-containing donor oligosaccharides to the non-reducing terminus (end) of a narrower range oligosaccharide acceptors whose nonreducing terminal saccharide is a β-linked Gal. A sialic acid is not transferred from an α(2,6)-linked Gal.
Thus, using the α(2,3)sialyltransferase acceptors of Scheme 2 (Compounds 2a and 2b) as exemplary and keeping in mind the before-discussed structural preferences and requirements of the T. crusi trans-sialidase for an acceptor substrate, it is seen that Compound 2a that has a non-reducing terminal Galβ1→3GlcNAc linkage, whereas Compound 2b contains a Galβ1→3GalNAc linkage, neither of which is preferred for an acceptor for the trans-sialidase, and both are present in a catalytic amount.

α(2,3)sialyltransferases = experiment: Suitability as substrate of α(2,3)sialyltransferases; type: biochemical; conditions: all known α(2,3)sialyltransferases
Source text: First, the corresponding galactoside Compound 3 [Jansson et al., J. Org. […] Second, after protection of hydroxy and carboxylate groups and selective cleavage of 2-(trimethylsilyl)ethyl glycoside, the sialoside Compound 4 is readily converted to a disaccharide glycosyl donor that can be used in the block chemical synthesis of ganglioside GM4 and more complex sialosides [(a) Suguimoto et al., Tetrahedron Lett., 31:385 (1990); (b) Kameyama et al., Carbohydr. Res., 209 (1991)] as reported by others.

[3] = value approximated from the data in Rearick et al.

Question: Which “Km /Vmax” value [1] does the source give for `OC[C@H]1O[C@@H](O[C@H]2[C@H](O)[C@@H](O)C(O)O[C@@H]2CO)[C@H](O)[C@@H](O)[C@H]1O` (some centres unmarked) [Galβ1→4Glc] here?
Answer: 10 mM-units mg

Question: And the “Km /Vmax” value [2]?
Answer: 290 mM-units mg

Question: Which “Km /Vmax” value ([1]; value approximated from the data in Weinstein et al.) does the source give for `CC(=O)N[C@H]1C(O)O[C@H](CO)[C@H](O)[C@@H]1O[C@@H]1O[C@H](CO)[C@H](O)[C@H](O)[C@H]1O` (some centres unmarked) [Galβ1→3GalNAc] here?
Answer: > 10 mM-units mg

Question: And the “Km /Vmax” value [2]?
Answer: 0.024 mM-units mg

Question: For `CC(=O)N[C@H]1[C@H](O[C@H]2[C@@H](O)[C@@H](CO)O[C@@H](O[C@H]3[C@H](O)[C@@H](O)C(O)O[C@@H]3CO)[C@@H]2O)O[C@H](CO)[C@@H](O)[C@@H]1O[C@@H]1O[C@H](CO)[C@H](O)[C@H](O)[C@H]1O` (some centres unmarked) [Compound 2a], which “acceptor quality for the trans-sialidase” value (T. crusi trans-sialidase) is on record?
Answer: relatively poor acceptors

Question: Which results are given for `CC(=O)N[C@H]1C(O)O[C@H](CO)[C@@H](O[C@@H]2O[C@H](CO)[C@H](O)[C@H](O)[C@H]2O)[C@@H]1O` (some centres unmarked) [Galβ1→4GlcNAc]?
Answer: Km [1]: 2700 µM; Km /Vmax [1]: 3.6 mM-units mg; Km /Vmax [2]: 382 mM-units mg

Question: For `CC(=O)N[C@H]1C(O)O[C@H](CO[C@@H]2O[C@H](CO)[C@H](O)[C@H](O)[C@H]2O)[C@@H](O)[C@@H]1O` (some centres unmarked) [Galβ1→6GlcNAc], which “Km /Vmax” value [2] is on record?
Answer: 121 mM-units mg

Question: With `CO[C@@H]1O[C@H](CO)[C@H](O)[C@H](O)[C@H]1O` [Galβ1→OCH3] as the compound, how does the “Km /Vmax” value [2, 3] read?
Answer: > 100 mM-units mg

Question: With `CC(=O)N[C@H]1[C@H](OCC[Si](C)(C)C)O[C@H](CO)[C@H](O)[C@@H]1O[C@@H]1O[C@H](CO)[C@H](O)[C@H](O)[C@H]1O` [Compound 2b] as the compound, how does the “acceptor quality for the trans-sialidase” value (T. crusi trans-sialidase) read?
Answer: relatively poor acceptors

Question: With `C[Si](C)(C)CCO[C@@H]1O[C@H](CO)[C@H](O)[C@H](O)[C@H]1O` [Compound 3] as the compound, how does the “substrate quality for α(2,3)sialyltransferases” value (α(2,3)sialyltransferases) read?
Answer: poor substrate

Question: What does the source list for `CC(=O)N[C@H]1C(O)O[C@H](CO)[C@@H](O)[C@@H]1O[C@@H]1O[C@H](CO)[C@H](O)[C@H](O)[C@H]1O` (some centres unmarked) [Galβ1→3GlcNAc]?
Answer: Km [1]: 640 µM; Km /Vmax [1]: 0.55 mM-units mg; Km /Vmax [2]: 15 mM-units mg

Question: Which Km [1] does the source give for `CC(=O)N[C@H]1[C@H](O[C@H]2[C@@H](O)[C@@H](CO)O[C@@H](O[C@H]3[C@H](O)[C@@H](O)C(O)O[C@@H]3CO)[C@@H]2O)O[C@H](CO)[C@@H](O[C@@H]2O[C@H](CO)[C@H](O)[C@H](O)[C@H]2O)[C@@H]1O` (some centres unmarked) [lacto-N-neo-tetraose, Galβ1→4GlcNAcβ1→3Galβ1→4Glc] here?
Answer: 4220 µM

Question: And the “Km /Vmax” value [1]?
Answer: 4.3 mM-units mg

Question: What about the Vmax [1] of the same compound?
Answer: 0.98 units/mg

Question: And the “Km /Vmax” value [2, 3]?
Answer: > 100 mM-units mg

Question: For `CC(=O)N[C@H]1[C@H](O[C@H]2[C@@H](O)[C@@H](CO)O[C@@H](O[C@H]3[C@H](O)[C@@H](O)C(O)O[C@@H]3CO)[C@@H]2O)O[C@H](CO)[C@@H](O)[C@@H]1O[C@@H]1O[C@H](CO)[C@H](O)[C@H](O)[C@H]1O` (some centres unmarked) [lacto-N-tetraose, Galβ1→3GlcNAcβ1→3Galβ1→4Glc], which Km [1] is on record?
Answer: 90 µM

Question: And the “Km /Vmax” value [1]?
Answer: 0.09 mM-units mg

Question: What about the Km [2] of the same compound?
Answer: 27000 µM

Question: What about the “Km /Vmax” value [2] of the same compound?
Answer: 7.5 mM-units mg
